Earlier results in patent US7090851B1, “Long lasting fusion peptide inhibitors of viral infection” (priority 1999, dated 2006).
Entries after “also recorded” stand apart in the source; their conditions may differ. Where two headings read alike, the source gives them in different places.

Columns and labels:
[1] = test system: human parainfluenza virus 3 (HPIV3); conditions: HPIV3-infected Hep2 cells and uninfected CV-1W cells
[2] = test system: simian immunodeficiency virus (SIV); conditions: as crude peptide
[3] = test system: measles virus (MeV); conditions: MeV-infected and uninfected Vero cells
[4] = test system: respiratory syncytial virus (RSV); conditions: for inhibition of RSV viral infection, fusion and syncytia formation: RSV-infected and uninfected Hep-2 cells
[5] = test system: HIV-1; conditions: infection and cell-cell fusion

ALDPIDISIELNKAKSDLEESKEWIRRSNQKLDSI (VALDPIDISIELNKAKSDLEESKEWIRRSNQKLDS) [SEQ ID NO:38, anti-HPIV peptide]
inhibition of HPIV3 viral infection, fusion and syncytia formation [1]: inhibits viral infection

DFLEENITALLEEAQIQQEKNMYELQKLNSWDVFG [SEQ ID NO:72]
anti-SIV activity [2]: potent antiviral activity

DPIDISIELNKAKSDLEESKEWIRRSNQKLDSIGN (LDPIDISIELNKAKSDLEESKEWIRRSNQKLDSIG) [SEQ ID NO:40, anti-HPIV peptide]
inhibition of HPIV3 viral infection, fusion and syncytia formation [1]: inhibits viral infection

ERKVDFLEENITALLEEAQIQQEKNMYELQKLNSW [SEQ ID NO:68]
anti-SIV activity [2]: potent antiviral activity

EWERKVDFLEENITALLEEAQIQQEKNMYELQKLN [SEQ ID NO:66]
anti-SIV activity [2]: potent antiviral activity

FLEENITALLEEAQIQQEKNMYELQKLNSWDVFGN [SEQ ID NO:73]
anti-SIV activity [2]: potent antiviral activity

HRIDLGPPISLERLDVGTNLGNAIAKLEAKELLE [SEQ ID NO:77]
inhibition of MeV viral infection, fusion and syncytia formation [3]: inhibits viral infection

IALLSTNKAVVSLSNGVSVLTSKVLDLKNYIDK [SEQ ID NO:29, anti-RSV peptide]
concentration inhibiting fusion and syncytia formation between RSV-infected and uninfected Hep-2 cells ([4]; Hep-2 cells): less than 50 μg/ml
inhibition of RSV viral infection, fusion and syncytia formation [4]: inhibits viral infection

IDISIELNKAKSDLEESKEWIRRSNQKLDSIGNWH (PIDISIELNKAKSDLEESKEWIRRSNQKLDSIGNW) [SEQ ID NO:42, anti-HPIV peptide]
inhibition of HPIV3 viral infection, fusion and syncytia formation [1]: inhibits viral infection

IDLGPPISLERLDVGTNLGNAIAKLEAKELLESS [SEQ ID NO:79]
inhibition of MeV viral infection, fusion and syncytia formation [3]: inhibits viral infection

KVDFLEENITALLEEAQIQQEKNMYELQKLNSWDV [SEQ ID NO:70]
anti-SIV activity [2]: potent antiviral activity

LDPIDISIELNKAKSDLEESKEWIRRSNQKLDSIG (ALDPIDISIELNKAKSDLEESKEWIRRSNQKLDSI) [SEQ ID NO:39, anti-HPIV peptide]
inhibition of HPIV3 viral infection, fusion and syncytia formation [1]: inhibits viral infection

NNLLRAIEAQQHLLQLTVWQIKQLQARILAVERYLKDQ [DP107]
anti-HIV-1 activity (words) ([5]; listed as DP-107): potent inhibitors of HIV-1 infection and fusion

NSVALDPIDISIELNKAKSDLEESKEWIRRSNQKL (NNSVALDPIDISIELNKAKSDLEESKEWIRRSNQK) [SEQ ID NO:35, anti-HPIV peptide]
inhibition of HPIV3 viral infection, fusion and syncytia formation [1]: inhibits viral infection

PIDISIELNKAKSDLEESKEWIRRSNQKLDSIGNW (DPIDISIELNKAKSDLEESKEWIRRSNQKLDSIGN) [SEQ ID NO:41, anti-HPIV peptide]
inhibition of HPIV3 viral infection, fusion and syncytia formation [1]: inhibits viral infection

PISLERLDVGTNLGNAIAKLEAKELLESSDQILR [SEQ ID NO:84]
inhibition of MeV viral infection, fusion and syncytia formation [3]: inhibits viral infection

QEWERKVDFLEENITALLEEAQIQQEKNMYELQKL [SEQ ID NO:65]
anti-SIV activity [2]: potent antiviral activity

RKVDFLEENITALLEEAQIQQEKNMYELQKLNSWD [SEQ ID NO:69]
anti-SIV activity [2]: potent antiviral activity

RSDIEKLKEAIRDTNKAVQSVQSSIGNLIVAIKSV [SEQ ID NO:58]
inhibition of HPIV3 viral infection, fusion and syncytia formation [1]: inhibits viral infection

TSVITIELSNIKENKCNGAKVKLIKQELDKYKN (TSVITIELSNIKENKCNGDAKVKLIKQELDKYKN) [SEQ ID NO:15, anti-RSV peptide]
inhibition of RSV viral infection, fusion and syncytia formation [4]: inhibits viral infection

VDFLEENITALLEEAQIQQEKNMYELQKLNSWDVF [SEQ ID NO:71]
anti-SIV activity [2]: potent antiviral activity

VEAKQARSDIEKLKEAIRDTNKAVQSVQSSIGNLI [SEQ ID NO:52]
inhibition of HPIV3 viral infection, fusion and syncytia formation [1]: inhibits viral infection

VITIELSNIKENKCNGAKVKLIKQELDKYKNAV (VITIELSNIKENKCNGDAKVKLIKQELDKYKNAV) [SEQ ID NO:16, anti-RSV peptide]
inhibition of RSV viral infection, fusion and syncytia formation [4]: inhibits viral infection

WERKVDFLEENITALLEEAQIQQEKNMYELQKLNS [SEQ ID NO:67]
anti-SIV activity [2]: potent antiviral activity

WQEWERKVDFLEENITALLEEAQIQQEKNMYELQK [SEQ ID NO:64]
anti-SIV activity [2]: potent antiviral activity

YTSVITIELSNIKENKCNGAKVKLIKQELDKYK (YTSVITIELSNIKENKCNGDAKVKLIKQELDKYK) [SEQ ID NO:14, anti-RSV peptide]
inhibition of RSV viral infection, fusion and syncytia formation [4]: inhibits viral infection

enfuvirtide
anti-HIV-1 activity (words) [5]: potent inhibitor of HIV-1; also recorded: potent anti-HIV-1 activity
anti-HIV-1 activity (words) ([5]; listed as DP-178): potent inhibitors of HIV-1 infection and fusion
